Values quoted from earlier work, collected in patent US6746697B2, “Composition containing Heliopsis longipes root extract and oral carrier” (Phytos, Inc., priority 2000, dated 2004).

Columns and labels:
[1] = tested on: certain microorganisms (Gram positive and Gram negative bacteria); conditions: purified affinin from ethanol extract; toxicity varying for Gram positive and Gram negative bacteria
[2] = tested on: mice; conditions: orally to mice

Structure (SMILES): C/C=C/C=C\CC/C=C/C(=O)NCC(C)C [affinin, N-isobutyl-2E, 6Z, 8E-decatrienamide]
- toxicity to microorganisms [1]: toxic to certain microorganisms
- analgesic effect ([2]; aqueous solution, doses from 2.5 to 10.0 mg/kg): analgesic effect
- deaths ([2]; highest dose (10.0 mg/kg)): two out of five deaths
- effect on normal motor activity ([2]; highest dose (10.0 mg/kg)): severe depression of normal motor activity
